Reference: PMC7170889, “Synthesis and evaluation of designed PKC modulators for enhanced cancer immunotherapy” (Nature Communications, 2020)

Legend:
PKCα = target: T1, PKCα (Homo sapiens, UniProt P17252); assay: PKC competitive binding assay with [3H]-phorbol dibutyrate (PKCα); conditions: cell-free, competition with [3H]-PDBu, PS vesicles; read-out: Ki PKCα
T1 construct: purchased Invitrogen
Protocol: (§1) With a panel of compounds bearing diverse functionality at C13, we began to explore how these modifications affect PKC binding and biological function. Because an obvious prerequisite for PKC pathway involvement is binding to PKC, compounds were initially evaluated for PKC affinity in a cell-free competitive binding assay with tritiated phorbol dibutyrate ([^3H]-PDBu). Assays were performed with representative members of both the conventional (PKCα) and novel (PKCδ) PKC families. Subsequently, compounds were assayed for PKC isoform translocation in real time in living cells using an optical assay. Translocation to the plasma membrane is the hallmark of PKC activation[18],[57],[60] and therefore monitoring the subcellular localization of a PKCδ-GFP fusion protein via confocal microscopy offers a convenient method for determining whether a compound enters a cell and engages its PKC isoform target. Finally and of clinical significance, we also determined the effect of compounds on CD22 surface expression in vitro in NALM6 cells, an ALL cell line previously studied in connection with CD22-targeted CAR T cell therapy, and two additional lymphoma cell lines[11],[31],[65].
(§2) PKC Binding Assay Protocol […]
(§3) competition with 3H-phorbol-12,13-dibutyrate (3H-PDBu) as described below. This procedure entails a glass-fiber filtration method to determine bound radioligand.
(§4) Preparation of PKC binding assay buffer
(§5) To a 50 mL polypropylene tube was added Tris-HCl (pH 7.4, 1 M, 1 mL), KCl (1 M, 2 mL), CaCl2 (0.1 M, 30 μL), and bovine serum albumin (BSA, 40 mg, Sigma-Aldrich). This mixture was diluted to 20 mL with deionized H2O and mixed gently. The buffer was stored on ice until use. The final […]
(§6) Supplementary Table1. PKC binding assay buffer composition.
(§7) Preparation of phosphatidylserine (PS) vesicles
(§8) For every two assays, 3.5 mg phosphatidylserine (Avanti Polar Lipids, porcine, 25 mg/mL CHCl3 solution) was concentrated by removing chloroform under a stream of nitrogen followed by reduced pressure. The solid PS was suspended as vesicles in freshly prepared PKC binding assay buffer (3.5 mL) by sonicating six times for 30 sec, with a 30 sec rest between sonications (Branson Sonifier 250, power = 2, 50% duty cycle). The resulting milky cloudy mixture (1 mg/mL) was stored […]
(§9) Preparation of PKC isoform solution
(§10) Assay PKC was prepared by dissolving a 4 μg aliquot of the indicated recombinant human PKC isoform (Invitrogen) into 11.6 mL of PKC binding assay buffer (this amount is sufficient for two assays). The diluted PKC was stored on ice for immediate use.
(§11) Preparation of 3H-PDBu solution
(§12) 3H-PDBu (American Radiolabeled Chemicals, Inc.; 1 mCi/mL acetone solution; specific activity: […]) was diluted 10-fold with DMSO. The resulting 500 nM stock solution was further diluted with DMSO to 30 nM.
(§13) Preparation of analog compound dilutions
(§14) Compound dilutions were prepared by serially diluting from a chosen "high" concentration by factors of 3 or 4. For each analog compound, seven concentrations were used to define the […]
(§15) To a polypropylene tube was added 3.3 mL of 1 mg/mL PS vesicles solution, 11 mL of PKC isoform solution, and 1.1 mL of 30 nM 3H-PDBu solution were added. The resulting solution was vortexed to mix and stored on ice.
(§16) PKC binding assay protocol
(§17) - Glass-fiber filters (Whatman GF/B) were prepared by soaking them in a solution of aqueous polyethyleneimine (10% by vol, 18 mL) in deionized water (600 mL) for ≥1h.
(§18) - 500 mL "rinsing buffer" of 20 mM Tris, pH 7.4 was cooled on ice for the duration of the incubation period and for the remainder of the assay.
Triplicate data points were obtained for each analog concentration. For each data point, 280 μL of "Master Mix" Solution and 20 μL of analog compound at a specified concentration were added to a polypropylene tube. Non-specific 3H-PDBu binding was assessed in triplicate by substitution

PKCδ = target: T2, PKCδ (Homo sapiens, UniProt Q05655); assay: PKC competitive binding assay with [3H]-phorbol dibutyrate (PKCδ); conditions: cell-free, competition with [3H]-PDBu, PS vesicles
T2 construct: purchased Invitrogen
T2 sequence (Q05655 whole entry): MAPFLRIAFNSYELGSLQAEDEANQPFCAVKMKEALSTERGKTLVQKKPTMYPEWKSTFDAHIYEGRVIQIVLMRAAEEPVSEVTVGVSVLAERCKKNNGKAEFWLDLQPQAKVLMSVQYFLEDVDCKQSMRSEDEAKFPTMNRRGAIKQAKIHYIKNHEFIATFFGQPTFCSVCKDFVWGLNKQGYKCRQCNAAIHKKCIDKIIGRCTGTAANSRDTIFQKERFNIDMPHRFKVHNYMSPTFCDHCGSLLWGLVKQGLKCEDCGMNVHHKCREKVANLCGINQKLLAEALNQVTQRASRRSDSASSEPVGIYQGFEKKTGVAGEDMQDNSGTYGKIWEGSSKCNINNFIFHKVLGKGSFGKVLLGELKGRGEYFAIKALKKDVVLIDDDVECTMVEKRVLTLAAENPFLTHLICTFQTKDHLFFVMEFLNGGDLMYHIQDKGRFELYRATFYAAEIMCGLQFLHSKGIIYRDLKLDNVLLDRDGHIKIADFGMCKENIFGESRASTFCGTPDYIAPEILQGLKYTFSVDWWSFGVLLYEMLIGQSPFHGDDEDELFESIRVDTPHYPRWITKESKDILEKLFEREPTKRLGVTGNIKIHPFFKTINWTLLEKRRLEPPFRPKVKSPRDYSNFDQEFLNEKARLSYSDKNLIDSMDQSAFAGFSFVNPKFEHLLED
Protocol: as §1, §2, §3, §4, §5, §6, §7, §8, §9
Assay PKC was prepared by dissolving a 4 μg aliquot of the indicated recombinant human PKC isoform (Invitrogen) into 11.6 mL of PKC binding assay buffer (this amount is sufficient for two assays). The diluted PKC was stored on ice for immediate use. […]
μCi/mmol) was diluted 10-fold with DMSO. The resulting 500 nM stock solution was further diluted with DMSO to 30 nM.
as §13, §14, §15, §16, §17, §18
Triplicate data points were obtained for each analog concentration. For each data point, 280 μL of "Master Mix" Solution and 20 μL of analog compound at a specified concentration were added to a polypropylene tube. Non-specific 3H-PDBu binding was assessed in triplicate by substitution […]
μM). Maximal 3H-PDBu binding was assessed in triplicate by substitution of the analog compound with 20 μL DMSO. The solutions were vortexed to mix, incubated at 37 °C for 10 min, and […]

PKC = PKC competitive binding assay, isoform not specified; parameters: species or system human; conditions: conventional and novel PKC isoforms
Protocol: as §1, §2, §3, §4, §5, §6, §7, §8, §9, §10, §11, §12, §13, §14, §15, §16
- Glass-fiber filters (Whatman GF/B) were prepared by soaking them in a solution of […]

CCCCCC#CC(=O)O[C@H]1/C(=C/C(=O)OC)C[C@H]2C[C@H]([C@@H](C)O)OC(=O)C[C@H](O)C[C@@H]3C[C@H](OC(C)=O)C(C)(C)[C@](O)(C[C@@H]4C[C@H](O)C[C@H](/C=C/C(C)(C)[C@]1(O)O2)O4)O3 [SUW204]
Ki (PKCα): 1.4 nM
Ki (PKCδ): 3.7 nM
PKC binding affinity in words (PKC): single-digit nanomolar

CCC/C=C/C=C/C(=O)O[C@H]1/C(=C/C(=O)OC)C[C@H]2C[C@H]([C@@H](C)O)OC(=O)C[C@H](O)C[C@@H]3C[C@H](OC(C)=O)C(C)(C)[C@](O)(C[C@@H]4C[C@@H](OC(C)=O)C[C@H](/C=C/C(C)(C)[C@]1(O)O2)O4)O3 [SUW207]
Ki (PKCα): 2 nM
Ki (PKCδ): 5.4 nM

CCCC=CC=CC(=O)OC1C(=CC(=O)OC)CC2CC(C(C)O)OC(=O)CC(O)CC3CC(OC(C)=O)C(C)(C)C(O)(CC4CC(OC(=O)Nc5ccccc5)CC(C=CC(C)(C)C1(O)O2)O4)O3 (stereo not drawn) [SUW208]
Ki (PKCα): 1 nM
Ki (PKCδ): 4.7 nM

CCCC=CC=CC(=O)OC1C(=CC(=O)OC)CC2CC(C(C)O)OC(=O)CC(O)CC3CC(OC(C)=O)C(C)(C)C(O)(CC4CC(OC(=O)CC56CC7CC(CC(C7)C5)C6)CC(C=CC(C)(C)C1(O)O2)O4)O3 (stereo not drawn) [SUW209]
Ki (PKCα): 1.6 nM
Ki (PKCδ): 3.5 nM

CCCC=CC=CC(=O)OC1C(=CC(=O)OC)CC2CC(C(C)O)OC(=O)CC(O)CC3CC(OC(C)=O)C(C)(C)C(O)(CC4CC(OC(=O)CCc5c[nH]c6ccccc56)CC(C=CC(C)(C)C1(O)O2)O4)O3 (stereo not drawn) [SUW210]
Ki (PKCα): 5.6 nM
Ki (PKCδ): 7.3 nM

CCCC=CC=CC(=O)OC1C(=CC(=O)OC)CC2CC(C(C)O)OC(=O)CC(O)CC3CC(OC(C)=O)C(C)(C)C(O)(CC4CC(=CC(=O)OCC)CC(C=CC(C)(C)C1(O)O2)O4)O3 (stereo not drawn) [SUW217]
Ki (PKCα): 9.2 nM
Ki (PKCδ): 9.4 nM

CCCC=CC=CC(=O)OC1C(=CC(=O)OC)CC2CC(C(C)O)OC(=O)CC(O)CC3CC(OC(C)=O)C(C)(C)C(O)(CC4CC(=CC(=O)OCC)CC(C=CC(C)(C)C1(O)O2)O4)O3 (stereo not drawn) [SUW218]
Ki (PKCα): 7.1 nM
Ki (PKCδ): 6.6 nM
